Experiment: Case report: blood glucose levels in pregnant with gestational diabetes given sesame oil and Nigella sativa oil
Assay type: in vivo, human
Protocol: A pregnant person diagnosed with gestational diabetes and treated with […] was administered daily with 5 ml sesame oil 100% w/v ([…]) and then co-administered with 5 ml sesame oil 100% w/v (Naissance) and 5 ml 100% w/v Nigella sativa oil (Better Flex). During oil treatment glucamin was not administered.
Blood glucose levels (mg/dL) were determined at the indicated hours.

`NC(=O)CC[C@H](N)C(=O)O` [glutamin] showed a Blood glucose levels (6 AM, 10 Sep. 2020) of 172 mg/dL, a Blood glucose levels (6 AM, 11 Sep. 2020) of 125 mg/dL and a Blood glucose levels (6 AM, 12 Sep. 2020) of 101 mg/dL. For the same compound, the Blood glucose levels (6 AM, 13 Sep. 2020) was 113 mg/dL, the Blood glucose levels (6 AM, 14 Sep. 2020) was 94 mg/dL and the Blood glucose levels (6 AM, 15 Sep. 2020) was 158 mg/dL. It also gave a Blood glucose levels (6 AM, 16 Sep. 2020) of 148 mg/dL, a Blood glucose levels (6 AM, 17 Sep. 2020) of 99 mg/dL and a Blood glucose levels (6 AM, 18 Sep. 2020) of 94 mg/dL. It also gave a Blood glucose levels (11 AM, 10 Sep. 2020) of 154 mg/dL, a Blood glucose levels (11 AM, 11 Sep. 2020) of 109 mg/dL and a Blood glucose levels (11 AM, 12 Sep. 2020) of 88 mg/dL. The Blood glucose levels (11 AM, 13 Sep. 2020) was 84 mg/dL, the Blood glucose levels (11 AM, 14 Sep. 2020) was 90 mg/dL and the Blood glucose levels (11 AM, 15 Sep. 2020) was 159 mg/dL. It also gave a Blood glucose levels (11 AM, 17 Sep. 2020) of 124 mg/dL, a Blood glucose levels (11 AM, 18 Sep. 2020) of 84 mg/dL and a Blood glucose levels (15 PM, 10 Sep. 2020) of 122 mg/dL. It also gave a Blood glucose levels (15 PM, 11 Sep. 2020) of 126 mg/dL, a Blood glucose levels (15 PM, 12 Sep. 2020) of 106 mg/dL and a Blood glucose levels (15 PM, 13 Sep. 2020) of 125 mg/dL. For the same compound, the Blood glucose levels (15 PM, 14 Sep. 2020) was 134 mg/dL, the Blood glucose levels (15 PM, 15 Sep. 2020) was 98 mg/dL and the Blood glucose levels (15 PM, 16 Sep. 2020) was 154 mg/dL. For the same compound, the Blood glucose levels (15 PM, 17 Sep. 2020) was 90 mg/dL, the Blood glucose levels (15 PM, 18 Sep. 2020) was 89 mg/dL and the Blood glucose levels (15 PM, 21 Sep. 2020) was 109 mg/dL. It also gave a Blood glucose levels (21 PM, 10 Sep. 2020) of 97 mg/dL, a Blood glucose levels (21 PM, 11 Sep. 2020) of 103 mg/dL and a Blood glucose levels (21 PM, 12 Sep. 2020) of 95 mg/dL. It also gave a Blood glucose levels (21 PM, 13 Sep. 2020) of 80 mg/dL, a Blood glucose levels (21 PM, 14 Sep. 2020) of 125 mg/dL and a Blood glucose levels (21 PM, 15 Sep. 2020) of 83 mg/dL. For the same compound, the Blood glucose levels (21 PM, 16 Sep. 2020) was 88 mg/dL, the Blood glucose levels (21 PM, 17 Sep. 2020) was 77 mg/dL and the Blood glucose levels (21 PM, 18 Sep. 2020) was 84 mg/dL. The Blood glucose levels (21 PM, 21 Sep. 2020) was 74 mg/dL.

— patent publication US20240390446A1, “COMPOSITIONS AND METHODS FOR TREATING OR PREVENTING INFLAMMATORY DISEASES INCLUDING DIABETES AND THYROID DISEASES” (priority 2021, published 2024)
